The text below walks through data of ChEMBL document CHEMBL1201862, “PubChem BioAssay data set” (2004).

The term GI50 denotes the concentration that inhibits growth by half.

Test systems include SNB-75; SK-MEL-2; UACC-62; MDA-MB-231; RXF 393; SF-539; MCF7; LOX IMVI; SK-OV-3; EKVX; HCT-15; A549; HCT-116; MOLT-4; UACC-257; MDA-MB-435; Hs-578T; CCRF-CEM; RPMI-8226.
Holding throughout (experiment): DTP human tumour cell line panel, 48 h

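Where inhibition never reached the appropriate level, the endpoint shown equals the highest concentration tested. Otherwise, values were interpolated linearly from a five-concentration, 48-hour dose response in 96-well plates. GI50 marks 50% less growth.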 The source made the active and inactive calls. Rule as the data show it: active = GI50 up to about 1.1 µM and inactive = higher.

For the molecule `OCCOCn1nncc1Cn1ncc2c(SCc3ccccc3)ncnc21`, the GI50 in the test with SNB-75 is 60.4 µM (inactive); in the test on SK-MEL-2, > 100 µM (inactive); with UACC-62 it was > 100 µM (inactive); in the test on MDA-MB-231, > 100 µM (inactive); in the test on RXF 393, > 100 µM (inactive); in the test on SF-539, 65 µM (inactive). Moreover, the GI50 was 49.3 µM (inactive) with MCF7; 35.5 µM (inactive) with LOX IMVI; > 100 µM (inactive) in the test with SK-OV-3; > 100 µM (inactive) in the test with EKVX; 57.3 µM with HCT-15; > 100 µM (inactive) in the test on A549. Besides, the GI50 is 45.9 µM (inactive) in the test with HCT-116; 6.19 µM (inactive) in the test with MOLT-4; > 100 µM (inactive) with UACC-257; 45.9 µM (inactive) in the test with MDA-MB-435; > 100 µM (inactive) in the test with Hs-578T.
On to `O=CC(O)C(O)C(O)C(O)C(=O)NCCCCCCCCCCCCNC(=O)C(O)C(O)C(O)C(O)C=O` (centres undefined), for which the GI50 with SK-MEL-2, with UACC-62, in the test on MDA-MB-231, with RXF 393, in the test on SF-539 and in the test with CCRF-CEM was > 100 µM (inactive) throughout. In addition, the GI50 with MCF7 is > 100 µM (inactive); in the test on LOX IMVI, > 100 µM (inactive); in the test on SK-OV-3, > 100 µM (inactive); in the test on EKVX, > 100 µM (inactive); in the test on HCT-15, over 100 µM; with A549, > 100 µM (inactive). In addition, the GI50 in the test with HCT-116, with MOLT-4, in the test with UACC-257, in the test with MDA-MB-435 and in the test on Hs-578T was > 100 µM (inactive) each time.
Turning to `NCCCN1CCN(CCCNc2ccc3nnn4c5ccccc5c(=O)c2c34)CC1`, the GI50 in the test on SNB-75 was 17.7 µM (inactive); with SK-MEL-2, 18.7 µM (inactive); in the test on UACC-62, 15.4 µM (inactive); in the test with MDA-MB-231, 13.1 µM (inactive); in the test with SF-539, 13.9 µM (inactive); with RPMI-8226 it was 21.8 µM (inactive). Also, the GI50 in the test with CCRF-CEM is 9.91 µM (inactive); with MCF7, 16.2 µM (inactive); with LOX IMVI, 8.32 µM (inactive); in the test on SK-OV-3 it was 57.4 µM (inactive); in the test with EKVX, 19.9 µM (inactive); in the test on HCT-15, 20.7 µM. Also, the GI50 with A549 is 28.2 µM (inactive); in the test on HCT-116, 6.73 µM (inactive); in the test with MOLT-4 it was 9.51 µM (inactive); in the test with UACC-257 it was 28.2 µM (inactive); in the test with MDA-MB-435 it was 21.6 µM (inactive); in the test on Hs-578T it was 27.4 µM (inactive).
As for `COc1ccc(-n2sc3ncccc3c2=O)cc1`, the GI50 is 23.6 µM (inactive) in the test on SNB-75; > 100 µM (inactive) in the test with SK-MEL-2; 36.4 µM (inactive) with UACC-62; 21.7 µM (inactive) with MDA-MB-231; 17.3 µM (inactive) in the test with SF-539; 28.3 µM (inactive) in the test on RPMI-8226. The GI50 was 8.32 µM (inactive) in the test on CCRF-CEM; 19.9 µM (inactive) with MCF7; 30.8 µM (inactive) in the test with LOX IMVI; > 100 µM (inactive) in the test on SK-OV-3; 14.8 µM (inactive) with EKVX; 22.6 µM in the test with HCT-15. The GI50 was 69.5 µM (inactive) with A549; 17.7 µM (inactive) in the test with HCT-116; 8.18 µM (inactive) in the test on MOLT-4; 18.7 µM (inactive) in the test on UACC-257; 28.8 µM (inactive) in the test on MDA-MB-435; 26.3 µM (inactive) in the test with Hs-578T.
`CCOc1cc(C2SCC(=O)N2c2ccc(Oc3ccc(Cl)cc3)c(Cl)c2)ccc1O` (centres undefined): the GI50 is 21.2 µM (inactive) with SNB-75; 14 µM (inactive) in the test with SK-MEL-2; 16.4 µM (inactive) in the test on UACC-62; 19.3 µM (inactive) in the test on MDA-MB-231; 16.1 µM (inactive) in the test with SF-539; 14.7 µM (inactive) with RPMI-8226. Besides, the GI50 in the test on CCRF-CEM is 13.7 µM (inactive); in the test on MCF7 it was 25.1 µM (inactive); in the test on LOX IMVI, 19.4 µM (inactive); in the test on SK-OV-3, 21.6 µM (inactive); in the test with EKVX, 18 µM (inactive); in the test on HCT-15, 19.6 µM. For the same molecule, the GI50 in the test on A549 is 17.9 µM (inactive); in the test with HCT-116, 12.2 µM (inactive); in the test with MOLT-4, 18.1 µM (inactive); in the test on UACC-257 it was 17.5 µM (inactive); in the test on MDA-MB-435 it was 19 µM (inactive); in the test on Hs-578T, 17.3 µM (inactive).
`O=C(OC[C@H]1C[C@H]2C(=O)CCC[C@H]2O1)c1ccccc1`: the GI50 in the test on SNB-75, in the test with SK-MEL-2, with UACC-62, in the test on MDA-MB-231, with SF-539 and with RPMI-8226 was > 100 µM (inactive) each time. The GI50 was > 100 µM (inactive) in the test on CCRF-CEM; > 100 µM (inactive) in the test on MCF7; > 100 µM (inactive) in the test on LOX IMVI; > 100 µM (inactive) with SK-OV-3; > 100 µM (inactive) in the test with EKVX; over 100 µM with HCT-15. The GI50 in the test with A549, in the test with HCT-116, in the test on MOLT-4, with UACC-257, with MDA-MB-435 and in the test on Hs-578T was > 100 µM (inactive) each time.
As for `Cc1[nH]c(=O)c2oc3cc4ccccc4cc3c2c1C(=O)O`, the GI50 in the test on SNB-75, in the test with SK-MEL-2, in the test with UACC-62, with MDA-MB-231, with RXF 393 and in the test with SF-539 was > 10 µM (inactive) each time. Further, the GI50 in the test on MCF7 is > 10 µM (inactive); in the test with LOX IMVI, > 10 µM (inactive); in the test with SK-OV-3, > 10 µM (inactive); in the test on EKVX, > 10 µM (inactive); in the test with HCT-15, over 10 µM; in the test with A549 it was > 10 µM (inactive). Moreover, the GI50 in the test with UACC-257, with MDA-MB-435 and with Hs-578T was > 10 µM (inactive) each time.
Regarding `CNC1=C/C(=N/C2=CC(=N/C(=C\C#N)C(C)(C)O)/OC2(C)C)OC1(C)C`, the GI50 in the test with SNB-75 is 6.76 µM (inactive); with SK-MEL-2, 44.4 µM (inactive); with UACC-62, 7.91 µM (inactive); in the test with MDA-MB-231, 9.95 µM (inactive); with SF-539, 33.1 µM (inactive); in the test on RPMI-8226, 4.43 µM (inactive). Besides, the GI50 in the test with CCRF-CEM was 3.08 µM (inactive); in the test on MCF7, 5.82 µM (inactive); in the test on LOX IMVI, 5.51 µM (inactive); in the test on SK-OV-3 it was 17.1 µM (inactive); in the test with EKVX, 13.7 µM (inactive); in the test with HCT-15, 5.31 µM. Besides, the GI50 in the test with A549 was 15.5 µM (inactive); in the test with HCT-116, 5.15 µM (inactive); in the test with MOLT-4, 2.31 µM (inactive); in the test with UACC-257, 43.3 µM (inactive); in the test with MDA-MB-435, 22.6 µM (inactive); in the test on Hs-578T, 35.1 µM (inactive).
